Laboratory results: article PMC5041959, “A high-content EMT screen identifies multiple receptor tyrosine kinase inhibitors with activity on TGFβ receptor” (Oncotarget, 2016)
Where two headings read alike, the source gives them in different places.

What was measured:
[1] = target: T1, TGFBR1 (Homo sapiens, UniProt P36897); experiment: Biochemical kinase profiling (33PanQinase radiometric assay)
T1 sequence (P36897 34-503): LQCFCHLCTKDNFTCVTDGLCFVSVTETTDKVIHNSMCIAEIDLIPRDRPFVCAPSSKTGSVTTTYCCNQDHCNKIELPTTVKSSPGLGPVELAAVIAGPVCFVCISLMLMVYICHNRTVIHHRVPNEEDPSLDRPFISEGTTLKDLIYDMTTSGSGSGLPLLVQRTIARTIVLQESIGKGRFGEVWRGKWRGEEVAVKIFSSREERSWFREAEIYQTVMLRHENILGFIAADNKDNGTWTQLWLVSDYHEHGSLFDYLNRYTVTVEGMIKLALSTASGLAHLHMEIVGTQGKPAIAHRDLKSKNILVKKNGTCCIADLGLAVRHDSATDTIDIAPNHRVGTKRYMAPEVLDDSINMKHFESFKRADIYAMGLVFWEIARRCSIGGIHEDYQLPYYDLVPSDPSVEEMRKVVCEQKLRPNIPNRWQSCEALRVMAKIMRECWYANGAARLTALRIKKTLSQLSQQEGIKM

[2] = target: SRC (Homo sapiens, UniProt P12931); experiment: as above
[3] = target: ROCK2 (Homo sapiens, UniProt O75116); experiment: as above
Sequence of ROCK2 (O75116 whole entry): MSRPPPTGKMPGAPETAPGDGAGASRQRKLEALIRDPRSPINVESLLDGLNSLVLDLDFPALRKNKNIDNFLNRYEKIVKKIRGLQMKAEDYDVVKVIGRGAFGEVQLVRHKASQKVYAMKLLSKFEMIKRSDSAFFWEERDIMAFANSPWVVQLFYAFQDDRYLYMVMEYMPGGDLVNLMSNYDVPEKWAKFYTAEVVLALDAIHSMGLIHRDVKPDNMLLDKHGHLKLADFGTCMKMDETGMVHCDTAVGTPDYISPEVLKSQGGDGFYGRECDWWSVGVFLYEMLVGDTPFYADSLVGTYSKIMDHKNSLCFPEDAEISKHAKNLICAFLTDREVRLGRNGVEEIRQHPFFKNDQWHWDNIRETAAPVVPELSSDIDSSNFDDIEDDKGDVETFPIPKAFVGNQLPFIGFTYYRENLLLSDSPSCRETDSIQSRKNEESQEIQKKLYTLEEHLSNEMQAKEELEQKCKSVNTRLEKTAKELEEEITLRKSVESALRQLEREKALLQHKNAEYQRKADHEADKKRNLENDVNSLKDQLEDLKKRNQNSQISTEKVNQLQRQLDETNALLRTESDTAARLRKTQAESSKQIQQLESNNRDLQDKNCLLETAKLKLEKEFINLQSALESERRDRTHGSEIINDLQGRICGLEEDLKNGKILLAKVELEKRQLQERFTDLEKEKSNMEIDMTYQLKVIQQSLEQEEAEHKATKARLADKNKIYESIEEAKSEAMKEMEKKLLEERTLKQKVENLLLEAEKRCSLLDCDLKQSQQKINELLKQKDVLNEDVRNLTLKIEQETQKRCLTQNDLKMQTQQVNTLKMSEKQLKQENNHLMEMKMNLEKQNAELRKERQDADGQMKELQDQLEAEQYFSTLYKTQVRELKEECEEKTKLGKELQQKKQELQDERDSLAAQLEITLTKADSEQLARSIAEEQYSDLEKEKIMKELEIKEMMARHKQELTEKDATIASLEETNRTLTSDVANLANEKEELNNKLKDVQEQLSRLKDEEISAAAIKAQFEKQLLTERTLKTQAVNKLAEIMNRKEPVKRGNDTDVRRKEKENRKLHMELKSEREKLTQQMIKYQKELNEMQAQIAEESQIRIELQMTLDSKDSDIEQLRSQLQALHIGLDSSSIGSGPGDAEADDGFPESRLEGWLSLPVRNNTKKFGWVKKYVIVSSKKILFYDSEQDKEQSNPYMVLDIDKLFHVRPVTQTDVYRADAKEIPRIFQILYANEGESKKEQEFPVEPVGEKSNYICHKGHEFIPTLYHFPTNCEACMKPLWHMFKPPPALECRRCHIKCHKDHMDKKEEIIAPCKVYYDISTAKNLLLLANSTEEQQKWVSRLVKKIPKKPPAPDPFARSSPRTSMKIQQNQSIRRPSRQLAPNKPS

[4] = target: PDGFRB (Homo sapiens, UniProt P09619); experiment: as above
[5] = target: PDGFRA (Homo sapiens, UniProt P16234); experiment: as above
[6] = tested on: NMuMG cells; experiment: High-content microscopy EMT screen in TGFβ-treated NMuMG cells (FA, SF, FN, cell count); assay type: cell-based, murine
[7] = target: FGFR4 (Homo sapiens, UniProt P22455); experiment: Biochemical kinase profiling (33PanQinase radiometric assay)
Sequence of FGFR4 (P22455 22-802): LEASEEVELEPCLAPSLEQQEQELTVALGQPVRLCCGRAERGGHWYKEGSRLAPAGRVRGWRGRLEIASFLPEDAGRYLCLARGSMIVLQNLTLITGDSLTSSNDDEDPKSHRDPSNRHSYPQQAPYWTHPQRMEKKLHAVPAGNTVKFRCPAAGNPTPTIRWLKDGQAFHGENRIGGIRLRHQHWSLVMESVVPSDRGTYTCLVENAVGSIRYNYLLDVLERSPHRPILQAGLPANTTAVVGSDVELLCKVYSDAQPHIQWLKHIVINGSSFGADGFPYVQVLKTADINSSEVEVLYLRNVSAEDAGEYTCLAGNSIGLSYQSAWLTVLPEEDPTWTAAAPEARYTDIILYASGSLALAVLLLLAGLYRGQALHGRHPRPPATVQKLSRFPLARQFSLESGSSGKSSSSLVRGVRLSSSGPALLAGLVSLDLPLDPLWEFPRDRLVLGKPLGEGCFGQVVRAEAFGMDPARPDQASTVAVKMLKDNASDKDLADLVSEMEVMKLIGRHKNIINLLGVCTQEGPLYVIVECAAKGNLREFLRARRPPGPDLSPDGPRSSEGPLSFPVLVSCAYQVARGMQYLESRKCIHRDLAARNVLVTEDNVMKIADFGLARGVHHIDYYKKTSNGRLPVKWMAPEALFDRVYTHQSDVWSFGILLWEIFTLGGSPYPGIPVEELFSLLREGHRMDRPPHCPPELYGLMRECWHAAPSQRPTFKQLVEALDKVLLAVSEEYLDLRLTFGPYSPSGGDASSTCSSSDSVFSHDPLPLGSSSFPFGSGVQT

[8] = target: TGFBR2 (Homo sapiens, UniProt P37173); experiment: as above
Sequence of TGFBR2 (P37173 23-567): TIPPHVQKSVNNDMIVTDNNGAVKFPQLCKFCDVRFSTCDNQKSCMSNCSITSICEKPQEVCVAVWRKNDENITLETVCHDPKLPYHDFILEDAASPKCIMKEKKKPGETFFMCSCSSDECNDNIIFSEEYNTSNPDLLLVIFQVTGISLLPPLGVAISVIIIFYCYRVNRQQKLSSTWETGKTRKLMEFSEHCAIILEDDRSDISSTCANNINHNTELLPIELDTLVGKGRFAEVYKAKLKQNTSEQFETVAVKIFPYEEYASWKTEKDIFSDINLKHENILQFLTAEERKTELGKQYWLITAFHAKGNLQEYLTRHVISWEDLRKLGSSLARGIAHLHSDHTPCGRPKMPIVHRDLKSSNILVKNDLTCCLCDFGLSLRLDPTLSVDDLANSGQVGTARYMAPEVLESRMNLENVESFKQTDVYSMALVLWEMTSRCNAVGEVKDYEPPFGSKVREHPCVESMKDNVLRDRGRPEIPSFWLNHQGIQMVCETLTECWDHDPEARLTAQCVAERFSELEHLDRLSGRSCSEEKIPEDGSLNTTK

[9] = target: ROCK1 (Homo sapiens, UniProt Q13464); experiment: as above
Sequence of ROCK1 (Q13464 whole entry): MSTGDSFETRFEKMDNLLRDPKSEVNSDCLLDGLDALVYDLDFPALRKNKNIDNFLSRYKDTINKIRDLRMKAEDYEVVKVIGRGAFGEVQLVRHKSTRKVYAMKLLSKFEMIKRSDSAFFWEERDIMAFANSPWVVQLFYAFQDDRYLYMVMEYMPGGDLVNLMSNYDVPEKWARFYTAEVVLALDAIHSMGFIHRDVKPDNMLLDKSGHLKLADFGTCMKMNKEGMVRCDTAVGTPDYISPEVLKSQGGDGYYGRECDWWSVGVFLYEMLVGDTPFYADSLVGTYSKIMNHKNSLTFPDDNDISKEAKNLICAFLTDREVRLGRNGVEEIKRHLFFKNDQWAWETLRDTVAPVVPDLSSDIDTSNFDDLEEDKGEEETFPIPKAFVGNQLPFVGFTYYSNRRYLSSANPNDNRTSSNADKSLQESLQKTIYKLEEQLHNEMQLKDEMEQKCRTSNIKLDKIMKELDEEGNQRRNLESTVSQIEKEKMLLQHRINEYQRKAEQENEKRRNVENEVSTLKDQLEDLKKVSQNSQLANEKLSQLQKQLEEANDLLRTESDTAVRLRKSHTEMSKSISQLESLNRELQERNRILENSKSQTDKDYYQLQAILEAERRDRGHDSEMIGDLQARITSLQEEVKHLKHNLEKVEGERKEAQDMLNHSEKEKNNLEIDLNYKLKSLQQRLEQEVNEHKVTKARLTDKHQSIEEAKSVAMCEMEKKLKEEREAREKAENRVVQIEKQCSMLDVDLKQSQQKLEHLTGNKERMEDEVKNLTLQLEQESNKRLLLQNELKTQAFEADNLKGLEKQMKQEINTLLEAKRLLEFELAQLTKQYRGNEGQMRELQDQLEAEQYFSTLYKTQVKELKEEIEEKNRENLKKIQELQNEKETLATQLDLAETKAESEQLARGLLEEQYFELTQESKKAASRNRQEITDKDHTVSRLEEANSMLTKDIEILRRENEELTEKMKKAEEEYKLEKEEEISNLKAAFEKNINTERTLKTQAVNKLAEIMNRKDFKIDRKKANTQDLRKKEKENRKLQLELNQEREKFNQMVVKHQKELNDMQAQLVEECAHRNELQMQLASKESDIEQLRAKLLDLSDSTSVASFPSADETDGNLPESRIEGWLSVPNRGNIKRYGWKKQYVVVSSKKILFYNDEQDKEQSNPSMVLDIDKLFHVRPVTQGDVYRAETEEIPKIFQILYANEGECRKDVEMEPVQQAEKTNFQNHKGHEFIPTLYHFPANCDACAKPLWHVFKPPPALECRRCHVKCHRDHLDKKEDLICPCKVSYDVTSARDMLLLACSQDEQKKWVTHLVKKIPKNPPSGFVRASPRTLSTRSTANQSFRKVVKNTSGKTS

[10] = tested on: Py2T cells; experiment: High-content microscopy EMT assay in TGFβ-treated Py2T breast cancer cells; assay type: cell-based, murine; settings: Py2T; for Emax (maximal effect on cell count): compared to reference 10 μM SB-431542 = 100%
[11] = tested on: ROCK; experiment: ROCK cellular assay (MLC Thr18/Ser19 phosphorylation ELISA in A7r5 cells); assay type: cell-based, rat; settings: 90 min compound
[12] = target: FGFR2 (Homo sapiens, UniProt P21802); experiment: Biochemical kinase profiling (33PanQinase radiometric assay)
[13] = target: FGFR3 (Homo sapiens, UniProt P22607); experiment: as above
Sequence of FGFR3 (P22607 23-806): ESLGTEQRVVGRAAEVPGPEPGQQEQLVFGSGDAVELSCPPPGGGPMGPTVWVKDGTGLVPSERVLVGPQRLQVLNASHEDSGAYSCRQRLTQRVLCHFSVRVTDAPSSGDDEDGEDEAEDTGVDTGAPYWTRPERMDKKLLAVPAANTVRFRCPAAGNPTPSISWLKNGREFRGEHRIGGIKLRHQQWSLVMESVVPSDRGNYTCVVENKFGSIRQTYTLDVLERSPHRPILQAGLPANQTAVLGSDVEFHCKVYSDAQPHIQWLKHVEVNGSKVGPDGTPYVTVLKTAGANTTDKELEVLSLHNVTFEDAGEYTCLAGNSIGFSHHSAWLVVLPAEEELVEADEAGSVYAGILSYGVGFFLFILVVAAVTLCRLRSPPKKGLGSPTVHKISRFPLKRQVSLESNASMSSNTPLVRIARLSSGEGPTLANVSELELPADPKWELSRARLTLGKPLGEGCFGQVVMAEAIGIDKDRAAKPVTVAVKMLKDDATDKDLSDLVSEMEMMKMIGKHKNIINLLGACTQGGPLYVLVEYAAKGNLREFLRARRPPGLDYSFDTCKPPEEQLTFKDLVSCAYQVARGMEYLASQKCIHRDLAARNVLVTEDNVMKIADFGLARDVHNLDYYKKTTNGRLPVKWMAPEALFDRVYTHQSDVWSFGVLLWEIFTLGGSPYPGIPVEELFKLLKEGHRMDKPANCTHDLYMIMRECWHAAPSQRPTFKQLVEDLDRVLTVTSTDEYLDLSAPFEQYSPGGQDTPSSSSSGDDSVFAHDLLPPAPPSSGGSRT

[14] = target: FGFR1 (Homo sapiens, UniProt P11362); experiment: as above; settings: read-out: FGFR1 IC50; ATP at apparent Km
[15] = Mus musculus, NMuMG, cell count decreased by 50% compared to DMSO control, read-out: Tox IC50
[16] = NMuMG, TGFβ1 2 ng/ml plus compound, 4 days, parameter decreased by 50%
[17] = read-out: ROCK2 IC50, ATP at apparent Km
[18] = read-out: ROCK1 IC50, ATP at apparent Km
[19] = NMuMG, compared to reference 10 μM SB-431542 = 100%

SMILES	IC50 [1]	IC50 [2]	IC50 [3]	IC50 [4]	IC50 [6, 15]	FA IC50 (focal adhesion formation) [6, 16]	FN IC50 (fibronectin patch formation) [6, 16]	SF IC50 (stress fibers) [6, 16]	IC50 [7]	IC50 [8]	IC50 [9]	IC50 [3, 17]	Emax (maximal effect on cell count) [10]	IC50 [9, 18]	Emax (maximal effect on cell count) [6, 19]	further results
CCN(CC)CCCCNc1ncc2cc(-c3cc(OC)cc(OC)c3)c(NC(=O)NC(C)(C)C)nc2n1 [PD-173074]	> 10000 nM	6730 nM	> 10000 nM	3390 nM	3220 nM	n.m.	n.m.	n.m.	418 nM	> 10000 nM	> 10000 nM	–	–	–	–	IC50 [5]: > 10000 nM; Emax (maximal effect on cell count) [6]: n.m.
NC(=O)c1ccc(NC(=O)NCc2cccc(C(=O)Nc3ccc4c(c3)CNCC4)c2)cc1 [CAY10622]	–	–	–	–	–	–	–	–	–	–	–	17.8 nM	18.4%	54 nM	–	IC50 ([10]; TGFβ plus compound, 4 days, read-out: FA IC50 (focal adhesions)): > 25000 nM; IC50 ([10]; TGFβ plus compound, 4 days, read-out: FN IC50 (fibronectin patches)): > 25000 nM; IC50 ([10]; TGFβ plus compound, 4 days, read-out: SF IC50 (stress fibers)): > 25000 nM; IC50 ([10]; cell count decreased by 50% compared to DMSO control, read-out: Tox IC50): > 25000 nM; IC50 ([10]; compared to 10 μM SB-431542, read-out: CCI IC50 (cell count increase)): > 25000 nM; IC50 [11]: > 10000 nM
CCN(CC)CCOc1ccc(Nc2ncc3cc(-c4c(Cl)cccc4Cl)c(=O)n(C)c3n2)cc1 [PD-166285]	6.8 nM	–	–	–	229 nM	–	–	–	55.5 nM	–	–	–	n.m.	–	–	IC50 ([10]; Mus musculus, cell count decreased by 50% compared to DMSO control, read-out: Tox IC50): 138 nM; FA IC50 (focal adhesions) ([10]; TGFβ plus compound, 4 days): n.m.; FN IC50 (fibronectin patches) ([10]; TGFβ plus compound, 4 days): n.m.; SF IC50 (stress fibers) ([10]; TGFβ plus compound, 4 days): n.m.; IC50 [12]: 1.8 nM; IC50 ([6]; Mus musculus, 96 h, NMuMG, TGFβ1 2 ng/ml plus compound, 4 days, parameter decreased by 50%, read-out: FA IC50 (focal adhesion formation)): 27 nM; IC50 ([6]; Mus musculus, 96 h, NMuMG, TGFβ1 2 ng/ml plus compound, 4 days, parameter decreased by 50%, read-out: FN IC50 (fibronectin patch formation)): 39 nM; IC50 ([6]; Mus musculus, 96 h, NMuMG, TGFβ1 2 ng/ml plus compound, 4 days, parameter decreased by 50%, read-out: SF IC50 (stress fibers)): 79 nM; IC50 ([6]; Mus musculus, NMuMG, mean of IC50 values obtained for FA, SF, FN, read-out: EMT (FA/SF/FN) combined IC50): 48.3 nM; IC50 ([6]; Mus musculus, read-out: CCI IC50 (cell count increase)): 17 nM; Emax ([6]; Mus musculus, read-out: Emax (maximal effect on cell count)): 24%; IC50 ([8]; TGFBR2 IC50, ATP at apparent Km): 137 nM; IC50 [13]: 9 nM
COc1cc(OC)cc(-c2cc3cnc(N)nc3nc2NC(=O)NC(C)(C)C)c1 [PD-166866]	–	–	–	–	–	n.m.	n.m.	n.m.	–	–	–	> 10000 nM	–	> 10000 nM	n.m.	IC50 ([1]; read-out: TGFBR1 IC50, ATP at apparent Km): > 10000 nM; IC50 ([12]; read-out: FGFR2 IC50, ATP at apparent Km): 10.2 nM; IC50 ([6]; NMuMG, cell count decreased by 50% compared to DMSO control, read-out: Tox IC50): 3360 nM; CCI IC50 (cell count increase) ([6]; NMuMG, cell count increased by 50% compared to 100% with 10 μM SB-431542): n.m.; IC50 [14]: 22.5 nM; IC50 ([7]; read-out: FGFR4 IC50, ATP at apparent Km): 492 nM; IC50 ([8]; read-out: TGFBR2 IC50, ATP at apparent Km): > 10000 nM; IC50 ([13]; read-out: FGFR3 IC50, ATP at apparent Km): 49.3 nM
CCN1CCN(c2ccc(Nc3cc(N(C)C(=O)Nc4c(Cl)c(OC)cc(OC)c4Cl)ncn3)cc2)CC1 [BGJ398]	> 10000 nM	7940 nM	> 10000 nM	7430 nM	1500 nM	n.m.	n.m.	n.m.	–	> 10000 nM	> 10000 nM	–	–	–	n.m.	–
